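Tested at 5 concentrations; 48 h exposure; 96-well plates; endpoints linearly interpolated, else capped at highest concentration. Abbreviation: GI50, concentration required for 50% inhibition of growth.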 Active and inactive are the calls of the source. No stated cut-off is given here; in the data, active = GI50 up to about 1.1 µM and inactive = higher.
Experiments:
Assay in all cases: NCI anticancer screen, dose series, 48 h
OVCAR-4 = tested on: OVCAR-4
UACC-62 = tested on: UACC-62
LOX IMVI = tested on: LOX IMVI
HOP-62 = tested on: HOP-62
MCF7 = tested on: MCF7
MDA-MB-435 = tested on: MDA-MB-435
RXF 393 = tested on: RXF 393
SF-268 = tested on: SF-268
SK-OV-3 = tested on: SK-OV-3
HCT-15 = tested on: HCT-15
NCI-H460 = tested on: NCI-H460
UO-31 = tested on: UO-31
RPMI-8226 = tested on: RPMI-8226
Hs-578T = tested on: Hs-578T
SR = tested on: SR
UACC-257 = tested on: UACC-257
NCI-H23 = tested on: NCI-H23
SF-295 = tested on: SF-295
NCI-H226 = tested on: NCI-H226
OVCAR-8 = tested on: OVCAR-8

| SMILES | GI50 (OVCAR-4) | GI50 (UACC-62) | GI50 (LOX IMVI) | GI50 (HOP-62) | GI50 (MCF7) | GI50 (MDA-MB-435) | GI50 (RXF 393) | GI50 (SF-268) | GI50 (SK-OV-3) | GI50 (HCT-15) [µM] | GI50 (NCI-H460) | GI50 (UO-31) | GI50 (RPMI-8226) | GI50 (Hs-578T) | GI50 (SR) | GI50 (UACC-257) | GI50 (NCI-H23) | GI50 (SF-295) | GI50 (NCI-H226) | GI50 (OVCAR-8) |
| --- | --- | --- | --- | --- | --- | --- | --- | --- | --- | --- | --- | --- | --- | --- | --- | --- | --- | --- | --- | --- |
| O=C(/C=C/c1ccc(O)c(O)c1)OCCCc1ccccc1 | 6.67 µM (inactive) | 9.84 µM (inactive) | 12.3 µM (inactive) | 13.7 µM (inactive) | 12 µM (inactive) | 9.44 µM (inactive) | 11.2 µM (inactive) | 10.2 µM (inactive) | 23.6 µM (inactive) | 3.9 | 20.2 µM (inactive) | 4.95 µM (inactive) | 13.1 µM (inactive) | 28.4 µM (inactive) | 5.69 µM (inactive) | 34.1 µM (inactive) | 13.2 µM (inactive) | 16 µM (inactive) | 16 µM (inactive) |  |
| O=C1c2ccccc2CCC1C(O)(C(F)(F)F)C(F)(F)F (stereo not given) | > 100 µM (inactive) | > 100 µM (inactive) | > 100 µM (inactive) |  | > 100 µM (inactive) | > 100 µM (inactive) | 93.8 µM (inactive) |  | > 100 µM (inactive) | 63 | > 100 µM (inactive) | > 100 µM (inactive) | > 100 µM (inactive) | > 100 µM (inactive) | > 100 µM (inactive) | > 100 µM (inactive) | > 100 µM (inactive) | > 100 µM (inactive) | > 100 µM (inactive) | > 100 µM (inactive) |
| O=C1O/C(=C\c2ccccc2)N(c2ccccc2)C1=O | > 100 µM (inactive) | > 100 µM (inactive) | > 100 µM (inactive) | > 100 µM (inactive) | 51.8 µM (inactive) | > 100 µM (inactive) | > 100 µM (inactive) | > 100 µM (inactive) | > 100 µM (inactive) | > 100 | > 100 µM (inactive) | > 100 µM (inactive) | > 100 µM (inactive) | > 100 µM (inactive) | > 100 µM (inactive) | > 100 µM (inactive) | > 100 µM (inactive) |  | > 100 µM (inactive) | > 100 µM (inactive) |
| CCNc1ncnc2sc(SCc3ccccc3)nc12 | > 100 µM (inactive) |  | 95.9 µM (inactive) | > 100 µM (inactive) | 79.6 µM (inactive) | > 100 µM (inactive) | > 100 µM (inactive) | > 100 µM (inactive) | > 100 µM (inactive) | > 100 | 46.2 µM (inactive) | 36.8 µM (inactive) | 43.3 µM (inactive) | > 100 µM (inactive) | 33.8 µM (inactive) | 79.1 µM (inactive) | 83.8 µM (inactive) | 89.5 µM (inactive) | > 100 µM (inactive) | 80.9 µM (inactive) |
| CCOP(=O)(OCC)[C@]12C[C@@H](C)C=C[C@H]1COC2=O | > 100 µM (inactive) | > 100 µM (inactive) | > 100 µM (inactive) | > 100 µM (inactive) | > 100 µM (inactive) | > 100 µM (inactive) | > 100 µM (inactive) | > 100 µM (inactive) | > 100 µM (inactive) |  | > 100 µM (inactive) | > 100 µM (inactive) | > 100 µM (inactive) | > 100 µM (inactive) | > 100 µM (inactive) | > 100 µM (inactive) | > 100 µM (inactive) | > 100 µM (inactive) |  | > 100 µM (inactive) |
| N#CCCN(CCC#N)CCN(CCN(CCC#N)CCC#N)CCN(CCC#N)CCC#N | > 100 µM (inactive) |  | > 100 µM (inactive) | > 100 µM (inactive) | > 100 µM (inactive) | > 100 µM (inactive) | > 100 µM (inactive) | > 100 µM (inactive) | > 100 µM (inactive) | > 100 | > 100 µM (inactive) | > 100 µM (inactive) | > 100 µM (inactive) | > 100 µM (inactive) | > 100 µM (inactive) | > 100 µM (inactive) | > 100 µM (inactive) | > 100 µM (inactive) | > 100 µM (inactive) | > 100 µM (inactive) |
| Fc1c(F)c(C(F)(F)F)c(F)c(F)c1N/N=C\c1c[nH]c2ccccc12 | 2.44 µM (inactive) | 2.44 µM (inactive) | 3.3 µM (inactive) | 1.55 µM (inactive) | 2.69 µM (inactive) | 1.51 µM (inactive) | 2 µM (inactive) | 5.24 µM (inactive) | 1.39 µM (inactive) | 3.37 | 1.86 µM (inactive) | 1.16 µM (inactive) | 2.81 µM (inactive) | 8.38 µM (inactive) | 2.75 µM (inactive) | 3.52 µM (inactive) | 3.95 µM (inactive) | 2.2 µM (inactive) |  | 6.43 µM (inactive) |
| O=c1[nH]nc(Cc2ccccc2)n1/N=C/c1cccnc1 | > 100 µM (inactive) |  | > 100 µM (inactive) | > 100 µM (inactive) | > 100 µM (inactive) | > 100 µM (inactive) | > 100 µM (inactive) | > 100 µM (inactive) |  | > 100 | > 100 µM (inactive) | 71.6 µM (inactive) | > 100 µM (inactive) | > 100 µM (inactive) | > 100 µM (inactive) | > 100 µM (inactive) | > 100 µM (inactive) | > 100 µM (inactive) | > 100 µM (inactive) | > 100 µM (inactive) |
| C=C(C(=O)O)[C@@H]1C[C@@H](OC(C)=O)[C@]2(C)CC/C=C(\C)CCC[C@H](C)[C@H](O)[C@@H]1O2 | > 100 µM (inactive) | 47.8 µM (inactive) | 30.3 µM (inactive) |  | 26.7 µM (inactive) | 24.2 µM (inactive) | 18.5 µM (inactive) | > 100 µM (inactive) | 34.5 µM (inactive) | 41.8 | 66.4 µM (inactive) |  | 17 µM (inactive) | 49.9 µM (inactive) | 24.3 µM (inactive) | 47 µM (inactive) |  | 24.7 µM (inactive) | 14.9 µM (inactive) | 27.5 µM (inactive) |
| CC(Br)CN1CCOCC1 (stereo not given) |  | > 100 µM (inactive) | > 100 µM (inactive) | > 100 µM (inactive) | > 100 µM (inactive) | > 100 µM (inactive) | > 100 µM (inactive) | > 100 µM (inactive) | > 100 µM (inactive) | > 100 | > 100 µM (inactive) | > 100 µM (inactive) | > 100 µM (inactive) | > 100 µM (inactive) | 13.9 µM (inactive) | > 100 µM (inactive) | > 100 µM (inactive) |  | > 100 µM (inactive) | > 100 µM (inactive) |
| COc1cc2c(/C=C3/C(=O)Nc4ccc(Cl)cc43)c(Cl)[nH]c2cc1C | 0.818 µM (active) | 0.288 µM (active) | 0.738 µM (active) | 0.439 µM (active) | 0.489 µM (active) | 0.201 µM (active) | 0.375 µM (active) | 1.03 µM (active) | 0.284 µM (active) | 0.449 | 0.524 µM (active) | 1.34 µM (inactive) | 0.91 µM (active) | 0.327 µM (active) | 0.32 µM (active) | 0.553 µM (active) | 0.916 µM (active) | 0.356 µM (active) | 1.1 µM (active) | 1.73 µM (inactive) |
| Cc1cc(S(=O)(=O)NC2=Nc3ccccc3C(c3ccccc3)N2)c(S)cc1Cl (stereo not given) | 13.6 µM (inactive) | > 100 µM (inactive) | 39.3 µM (inactive) | > 100 µM (inactive) | > 100 µM (inactive) | 31.7 µM (inactive) | 48.2 µM (inactive) | 39 µM (inactive) | > 100 µM (inactive) | 59.3 | 12.9 µM (inactive) | 24.9 µM (inactive) | 63.7 µM (inactive) | > 100 µM (inactive) | 23.3 µM (inactive) | > 100 µM (inactive) | > 100 µM (inactive) | 31.5 µM (inactive) | 17.4 µM (inactive) | > 100 µM (inactive) |
| C=C(C)C[C@H](Sc1nc2ccccc2s1)[C@H](C)O | 70.1 µM (inactive) | 52.7 µM (inactive) | 39.4 µM (inactive) | > 100 µM (inactive) | 38.3 µM (inactive) | 37.2 µM (inactive) | 48.3 µM (inactive) | 42.3 µM (inactive) |  | 35.8 | 45.3 µM (inactive) | 69 µM (inactive) | 28.9 µM (inactive) | 41.3 µM (inactive) | 30.3 µM (inactive) | 32.4 µM (inactive) | 31 µM (inactive) | 39.5 µM (inactive) | 22.5 µM (inactive) | 34.3 µM (inactive) |
| Cn1c(=O)c2c(nc3sc4nc5ccccc5nc4n32)n(C)c1=O |  | > 100 µM (inactive) | 92.3 µM (inactive) |  | > 100 µM (inactive) | > 100 µM (inactive) | > 100 µM (inactive) | > 100 µM (inactive) | > 100 µM (inactive) | > 100 | > 100 µM (inactive) | > 100 µM (inactive) | > 100 µM (inactive) | > 100 µM (inactive) | > 100 µM (inactive) | > 100 µM (inactive) | > 100 µM (inactive) | 49.5 µM (inactive) | > 100 µM (inactive) | > 100 µM (inactive) |
| COc1ccc(-c2cc(=O)c3ccc(O)cc3o2)cc1OC | 24.7 µM (inactive) | 33.8 µM (inactive) | 33.5 µM (inactive) | 25.5 µM (inactive) | 25.8 µM (inactive) | 45.5 µM (inactive) | 5.85 µM (inactive) | > 100 µM (inactive) | 41.4 µM (inactive) | 32.4 | 25.5 µM (inactive) |  | 22.8 µM (inactive) | 32.7 µM (inactive) | 13 µM (inactive) | > 100 µM (inactive) | 52.1 µM (inactive) | 31.3 µM (inactive) | > 100 µM (inactive) | 37.4 µM (inactive) |
